# Calls of active or inactive are those of the source. No cut-off for these calls is given here.
# How the values were obtained:
# Amaranthus retroflexus [1] = assay: Pre-emergence herbicidal activity against Amaranthus retroflexus under greenhouse condition at 750 g /ha measured after 24 days by spray method; assay type: functional; details: 576 h, read-out: GI
# [2] = system: Brassica rapa subsp. oleifera; assay: Post-emergence herbicidal activity against one-leaf stage Brassica rapa subsp. oleifera under greenhouse condition assessed as complete bleaching of leaves at 30 g /ha measured after 24 days by spray method; assay type: functional, organism-based
# [3] = system: Brassica rapa subsp. oleifera; assay: Post-emergence herbicidal activity against one-leaf stage Brassica rapa subsp. oleifera under greenhouse condition at 15 g /ha measured after 24 days by spray method; assay type: functional; details: 576 h, read-out: GI
# Digitaria [4] = assay: Pre-emergence herbicidal activity against Digitaria adscendens under greenhouse condition at 750 g /ha measured after 24 days by spray method; assay type: functional; details: in Digitaria adscendens, 576 h, read-out: GI
# Spirodela polyrhiza [5] = assay: Bleaching herbicidal activity in Spirodela polyrhiza fronds cultured in compound-containing in medium assessed as chlorophyll inhibition at 1 ug/ml after 7 days; assay type: functional; details: 168 h
# Amaranthus retroflexus [6] = assay: Post-emergence herbicidal activity against one-leaf stage Amaranthus retroflexus under greenhouse condition assessed as complete bleaching of leaves at 300 g /ha measured after 24 days by spray method; assay type: functional, organism-based
# Digitaria [7] = assay: Post-emergence herbicidal activity against one-leaf stage of Digitaria adscendens under greenhouse condition at 750 g /ha measured after 24 days by spray method; assay type: functional; details: in Digitaria adscendens, 576 h, read-out: GI
# Spirodela polyrhiza [8] = assay: Bleaching herbicidal activity in Spirodela polyrhiza fronds cultured in compound-containing in medium assessed as chlorophyll inhibition at 10 ug/ml after 7 days; assay type: functional; details: 168 h
# Amaranthus retroflexus [9] = assay: Post-emergence herbicidal activity against one-leaf stage Amaranthus retroflexus under greenhouse condition at 300 g /ha measured after 24 days by spray method; assay type: functional; details: 576 h, read-out: GI
# Amaranthus retroflexus [10] = assay: Post-emergence herbicidal activity against one-leaf stage Amaranthus retroflexus under greenhouse condition at 75 g /ha measured after 24 days by spray method; assay type: functional; details: 576 h, read-out: GI
# Amaranthus retroflexus [11] = assay: Post-emergence herbicidal activity against one-leaf stage Amaranthus retroflexus under greenhouse condition assessed as complete bleaching of leaves at 60 g /ha measured after 24 days by spray method; assay type: functional, organism-based
# [12] = system: Brassica rapa subsp. oleifera; assay: Post-emergence herbicidal activity against one-leaf stage Brassica rapa subsp. oleifera under greenhouse condition at 300 g /ha measured after 24 days by spray method; assay type: functional; details: 576 h, read-out: GI
# Amaranthus retroflexus [13] = assay: Post-emergence herbicidal activity against one-leaf stage Amaranthus retroflexus under greenhouse condition at 15 g /ha measured after 24 days by spray method; assay type: functional; details: 576 h, read-out: GI
# [14] = system: Brassica rapa subsp. oleifera; assay: Post-emergence herbicidal activity against one-leaf stage Brassica rapa subsp. oleifera under greenhouse condition at 750 g /ha measured after 24 days by spray method; assay type: functional; details: 576 h, read-out: GI
# [15] = system: Brassica rapa subsp. oleifera; assay: Post-emergence herbicidal activity against one-leaf stage Brassica rapa subsp. oleifera under greenhouse condition at 30 g /ha measured after 24 days by spray method; assay type: functional; details: 576 h, read-out: GI
# Amaranthus retroflexus [16] = assay: Post-emergence herbicidal activity against one-leaf stage Amaranthus retroflexus under greenhouse condition assessed as complete bleaching of leaves at 75 g /ha measured after 24 days by spray method; assay type: functional, organism-based
# Amaranthus retroflexus [17] = assay: Post-emergence herbicidal activity against one-leaf stage Amaranthus retroflexus under greenhouse condition at 600 g /ha measured after 24 days by spray method; assay type: functional; details: 576 h, read-out: GI
# Amaranthus retroflexus [18] = assay: Post-emergence herbicidal activity against one-leaf stage Amaranthus retroflexus under greenhouse condition at 7.5 g /ha measured after 24 days by spray method; assay type: functional; details: 576 h, read-out: GI
# [19] = system: Brassica rapa subsp. oleifera; assay: Post-emergence herbicidal activity against one-leaf stage Brassica rapa subsp. oleifera under greenhouse condition assessed as complete bleaching of leaves at 150 g /ha measured after 24 days by spray method; assay type: functional, organism-based
# Amaranthus retroflexus [20] = assay: Post-emergence herbicidal activity against one-leaf stage Amaranthus retroflexus under greenhouse condition at 60 g /ha measured after 24 days by spray method; assay type: functional; details: 576 h, read-out: GI
# Amaranthus retroflexus [21] = assay: Post-emergence herbicidal activity against one-leaf stage Amaranthus retroflexus under greenhouse condition assessed as complete bleaching of leaves at 7.5 g /ha measured after 24 days by spray method; assay type: functional, organism-based
# [22] = system: Brassica rapa subsp. oleifera; assay: Post-emergence herbicidal activity against one-leaf stage Brassica rapa subsp. oleifera under greenhouse condition assessed as complete bleaching of leaves at 7.5 g /ha measured after 24 days by spray method; assay type: functional, organism-based
# [23] = system: Brassica rapa subsp. oleifera; assay: Post-emergence herbicidal activity against one-leaf stage Brassica rapa subsp. oleifera under greenhouse condition at 75 g /ha measured after 24 days by spray method; assay type: functional; details: 576 h, read-out: GI
# Amaranthus retroflexus [24] = assay: Post-emergence herbicidal activity against one-leaf stage Amaranthus retroflexus under greenhouse condition assessed as complete bleaching of leaves at 30 g /ha measured after 24 days by spray method; assay type: functional, organism-based
# [25] = system: Brassica rapa subsp. oleifera; assay: Post-emergence herbicidal activity against one-leaf stage Brassica rapa subsp. oleifera under greenhouse condition assessed as complete bleaching of leaves at 300 g /ha measured after 24 days by spray method; assay type: functional, organism-based
# [26] = system: Brassica rapa subsp. oleifera; assay: Post-emergence herbicidal activity against one-leaf stage Brassica rapa subsp. oleifera under greenhouse condition at 60 g /ha measured after 24 days by spray method; assay type: functional; details: 576 h, read-out: GI
# Amaranthus retroflexus [27] = assay: Post-emergence herbicidal activity against one-leaf stage Amaranthus retroflexus under greenhouse condition assessed as complete bleaching of leaves at 600 g /ha measured after 24 days by spray method; assay type: functional, organism-based
# Echinochloa crus-galli [28] = assay: Post-emergence herbicidal activity against one-leaf stage of Echinochloa crus-galli (barnyard grass) under greenhouse condition at 750 g /ha measured after 24 days by spray method; assay type: functional; details: 576 h, read-out: GI
# [29] = system: Brassica rapa subsp. oleifera; assay: Post-emergence herbicidal activity against one-leaf stage Brassica rapa subsp. oleifera under greenhouse condition at 150 g /ha measured after 24 days by spray method; assay type: functional; details: 576 h, read-out: GI
# Amaranthus retroflexus [30] = assay: Post-emergence herbicidal activity against one-leaf stage Amaranthus retroflexus under greenhouse condition assessed as complete bleaching of leaves at 150 g /ha measured after 24 days by spray method; assay type: functional, organism-based
# [31] = system: Brassica rapa subsp. oleifera; assay: Post-emergence herbicidal activity against one-leaf stage Brassica rapa subsp. oleifera under greenhouse condition assessed as complete bleaching of leaves at 600 g /ha measured after 24 days by spray method; assay type: functional, organism-based
# [32] = system: Brassica rapa subsp. oleifera; assay: Post-emergence herbicidal activity against one-leaf stage Brassica rapa subsp. oleifera under greenhouse condition assessed as complete bleaching of leaves at 75 g /ha measured after 24 days by spray method; assay type: functional, organism-based
# [33] = system: Brassica rapa subsp. oleifera; assay: Post-emergence herbicidal activity against one-leaf stage Brassica rapa subsp. oleifera under greenhouse condition at 7.5 g /ha measured after 24 days by spray method; assay type: functional; details: 576 h, read-out: GI
# Amaranthus retroflexus [34] = assay: Post-emergence herbicidal activity against one-leaf stage Amaranthus retroflexus under greenhouse condition assessed as complete bleaching of leaves at 15 g /ha measured after 24 days by spray method; assay type: functional, organism-based
# Amaranthus retroflexus [35] = assay: Post-emergence herbicidal activity against one-leaf stage of Amaranthus retroflexus under greenhouse condition at 750 g /ha measured after 24 days by spray method; assay type: functional; details: 576 h, read-out: GI
# Amaranthus retroflexus [36] = assay: Post-emergence herbicidal activity against one-leaf stage Amaranthus retroflexus under greenhouse condition at 30 g /ha measured after 24 days by spray method; assay type: functional; details: 576 h, read-out: GI
# [37] = system: Brassica rapa subsp. oleifera; assay: Post-emergence herbicidal activity against one-leaf stage Brassica rapa subsp. oleifera under greenhouse condition at 600 g /ha measured after 24 days by spray method; assay type: functional; details: 576 h, read-out: GI
# Echinochloa crus-galli [38] = assay: Pre-emergence herbicidal activity against Echinochloa crus-galli (barnyard grass) under greenhouse condition at 750 g /ha measured after 24 days by spray method; assay type: functional; details: 576 h, read-out: GI
# [39] = system: Brassica rapa subsp. oleifera; assay: Post-emergence herbicidal activity against one-leaf stage Brassica rapa subsp. oleifera under greenhouse condition assessed as complete bleaching of leaves at 15 g /ha measured after 24 days by spray method; assay type: functional, organism-based
# Amaranthus retroflexus [40] = assay: Post-emergence herbicidal activity against one-leaf stage Amaranthus retroflexus under greenhouse condition at 150 g /ha measured after 24 days by spray method; assay type: functional; details: 576 h, read-out: GI
# [41] = system: Brassica rapa subsp. oleifera; assay: Post-emergence herbicidal activity against one-leaf stage Brassica rapa subsp. oleifera under greenhouse condition assessed as complete bleaching of leaves at 60 g /ha measured after 24 days by spray method; assay type: functional, organism-based
# [42] = system: Brassica rapa subsp. oleifera; assay: Pre-emergence herbicidal activity against Brassica rapa subsp. oleifera under greenhouse condition at 750 g /ha measured after 24 days by spray method; assay type: functional; details: 576 h, read-out: GI
structure (smiles),measurement,setting,value
Cc1cc(-c2cccc(C(F)(F)F)c2)c(Oc2ccc(Br)cc2)nn1,inhibition of growth at 750 g/ha,Amaranthus retroflexus [1],94%
same,Activity,[2],Active
same,inhibition of growth at 15 g/ha,[3],94%
same,inhibition of growth at 750 g/ha,Digitaria [4],64%
same,inhibition at 1 µg/mL,Spirodela polyrhiza [5],80%
same,Activity,Amaranthus retroflexus [6],Active
same,inhibition of growth at 750 g/ha,Digitaria [7],93%
same,inhibition at 10 µg/mL,Spirodela polyrhiza [8],90%
same,inhibition of growth at 300 g/ha,Amaranthus retroflexus [9],100%
same,inhibition of growth at 75 g/ha,Amaranthus retroflexus [10],88%
same,Activity,Amaranthus retroflexus [11],Active
same,inhibition of growth at 300 g/ha,[12],100%
same,inhibition of growth at 15 g/ha,Amaranthus retroflexus [13],28%
same,inhibition of growth at 750 g/ha,[14],94%
same,inhibition of growth at 30 g/ha,[15],100%
same,Activity,Amaranthus retroflexus [16],Active
same,inhibition of growth at 600 g/ha,Amaranthus retroflexus [17],100%
same,inhibition of growth at 7.5 g/ha,Amaranthus retroflexus [18],25%
same,Activity,[19],Active
same,inhibition of growth at 60 g/ha,Amaranthus retroflexus [20],51%
same,Activity,Amaranthus retroflexus [21],Active
same,Activity,[22],Active
same,inhibition of growth at 75 g/ha,[23],100%
same,Activity,Amaranthus retroflexus [24],Active
same,Activity,[25],Active
same,inhibition of growth at 60 g/ha,[26],100%
same,Activity,Amaranthus retroflexus [27],Active
same,inhibition of growth at 750 g/ha,Echinochloa crus-galli [28],60%
same,inhibition of growth at 150 g/ha,[29],100%
same,Activity,Amaranthus retroflexus [30],Active
same,Activity,[31],Active
same,Activity,[32],Active
same,inhibition of growth at 7.5 g/ha,[33],68%
same,Activity,Amaranthus retroflexus [34],Active
same,inhibition of growth at 750 g/ha,Amaranthus retroflexus [35],100%
same,inhibition of growth at 30 g/ha,Amaranthus retroflexus [36],35%
same,inhibition of growth at 600 g/ha,[37],100%
same,inhibition of growth at 750 g/ha,Echinochloa crus-galli [38],60%
same,Activity,[39],Active
same,inhibition of growth at 150 g/ha,Amaranthus retroflexus [40],100%
same,Activity,[41],Active
same,inhibition of growth at 750 g/ha,[42],61%
O=C(Nc1ccc(F)cc1F)c1cccnc1Oc1cccc(C(F)(F)F)c1 [DIFLUFENICAN],inhibition of growth at 750 g/ha,Amaranthus retroflexus [1],90%
same,inhibition of growth at 750 g/ha,Digitaria [4],100%
same,inhibition at 1 µg/mL,Spirodela polyrhiza [5],90%
same,Activity,Amaranthus retroflexus [6],Active
same,inhibition of growth at 750 g/ha,Digitaria [7],83%
same,inhibition at 10 µg/mL,Spirodela polyrhiza [8],94%
same,inhibition of growth at 300 g/ha,Amaranthus retroflexus [9],74%
same,inhibition of growth at 75 g/ha,Amaranthus retroflexus [10],41%
same,inhibition of growth at 300 g/ha,[12],94%
same,inhibition of growth at 750 g/ha,[14],98%
same,Activity,Amaranthus retroflexus [16],Active
same,inhibition of growth at 600 g/ha,Amaranthus retroflexus [17],100%
same,Activity,[19],Active
same,inhibition of growth at 75 g/ha,[23],44%
same,Activity,[25],Active
same,Activity,Amaranthus retroflexus [27],Active
same,inhibition of growth at 750 g/ha,Echinochloa crus-galli [28],67%
same,inhibition of growth at 150 g/ha,[29],88%
same,Activity,Amaranthus retroflexus [30],Active
same,Activity,[31],Active
same,Activity,[32],Active
same,inhibition of growth at 750 g/ha,Amaranthus retroflexus [35],100%
same,inhibition of growth at 600 g/ha,[37],98%
same,inhibition of growth at 750 g/ha,Echinochloa crus-galli [38],94%
same,inhibition of growth at 150 g/ha,Amaranthus retroflexus [40],70%
same,inhibition of growth at 750 g/ha,[42],71%
Cc1cc(-c2cccc(C(F)(F)F)c2)c(Oc2cccc(Br)c2)nn1,inhibition of growth at 750 g/ha,Amaranthus retroflexus [1],0%
same,inhibition of growth at 750 g/ha,Digitaria [4],33%
same,inhibition at 1 µg/mL,Spirodela polyrhiza [5],70%
same,Activity,Amaranthus retroflexus [6],Active
same,inhibition of growth at 750 g/ha,Digitaria [7],40%
same,inhibition at 10 µg/mL,Spirodela polyrhiza [8],79%
same,inhibition of growth at 300 g/ha,Amaranthus retroflexus [9],70%
same,inhibition of growth at 75 g/ha,Amaranthus retroflexus [10],38%
same,inhibition of growth at 300 g/ha,[12],76%
same,inhibition of growth at 750 g/ha,[14],100%
same,Activity,Amaranthus retroflexus [16],Active
same,inhibition of growth at 600 g/ha,Amaranthus retroflexus [17],73%
same,Activity,[19],Active
same,inhibition of growth at 75 g/ha,[23],42%
same,Activity,[25],Active
same,Activity,Amaranthus retroflexus [27],Active
same,inhibition of growth at 750 g/ha,Echinochloa crus-galli [28],40%
same,inhibition of growth at 150 g/ha,[29],67%
same,Activity,Amaranthus retroflexus [30],Active
same,Activity,[31],Active
same,Activity,[32],Active
same,inhibition of growth at 750 g/ha,Amaranthus retroflexus [35],94%
same,inhibition of growth at 600 g/ha,[37],91%
same,inhibition of growth at 750 g/ha,Echinochloa crus-galli [38],14%
same,inhibition of growth at 150 g/ha,Amaranthus retroflexus [40],45%
same,inhibition of growth at 750 g/ha,[42],0%
